In PubChem BioAssay (NCI):
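Exposure lasted 48 hours, with cells grown in 96-well plates and compounds tested at five concentrations. Abbreviation: GI50, concentration required for 50% inhibition of growth. TGI: concentration producing complete growth inhibition.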 Where a SMILES comes first, the peptide text is derived from it. Bridges are numbered along the chain shown (N, C = ends). [ ]: non-standard residue; d: D form. The star is where a group is joined. Phe(4-NO2) = N[CH](Cc1ccc([N+](=O)[O-])cc1)C(=O)O; Cbz = O=C(OCc1ccccc1)*; PhAc = O=C(Cc1ccccc1)*

Key:
Assay in all cases: DTP human tumour cell line panel, 48 h
ACHN renal = test system: ACHN renal
MDA-N = test system: MDA-N
DLD-1 colon = test system: DLD-1 colon
DMS 273 small cell lung = test system: DMS 273 small cell lung
HOP-18 NSCLC = test system: HOP-18 NSCLC
SNB-78 CNS = test system: SNB-78 CNS
M19-MEL melanoma = test system: M19-MEL melanoma
XF 498 CNS = test system: XF 498 CNS
LXFL 529 NSCLC = test system: LXFL 529 NSCLC
RXF-631 renal = test system: RXF-631 renal
DMS 114 small cell lung = test system: DMS 114 small cell lung
KM20L2 colon = test system: KM20L2 colon

Cc1cccc(NC(=S)Nc2ccc([N+](=O)[O-])cc2)n1
TGI (ACHN renal): > 100 µM

CCOC(=O)C(NC(=O)C(CCCCNP(=O)(OCC)OCC)NC(=O)C(C)NC(C)=O)C(C)C (stereo not given)
TGI (MDA-N): > 100 µM | TGI (ACHN renal): > 100 µM

CC(C)C1C(=O)NC(CO)Cc2c[nH]c3c(C(c4c[nH]c5ccccc45)C(O)CO)ccc(c23)N1C (stereo not given)
TGI (DLD-1 colon): > 100 µM | TGI (ACHN renal): > 100 µM | TGI (DMS 273 small cell lung): > 100 µM | TGI (HOP-18 NSCLC): > 100 µM | TGI (SNB-78 CNS): > 100 µM | TGI (M19-MEL melanoma): > 100 µM | TGI (XF 498 CNS): > 100 µM | TGI (LXFL 529 NSCLC): > 100 µM

O=Nc1c(-c2c(O)[nH]c3ccccc23)[nH]c2ccccc12
TGI (MDA-N): > 47.4 µM | TGI (ACHN renal): > 32.1 µM

CC(C)(C)N1C(=O)c2ccccc2C1(O)C(F)(F)F (stereo not given)
TGI (MDA-N): > 100 µM | TGI (ACHN renal): > 100 µM

Cc1ccc2[nH]c3c(C)c4c(c(C)c3c2c1)CN(C)C=C4
TGI (RXF-631 renal): 8.75 µM | TGI (DLD-1 colon): 13.1 µM | GI50 (DMS 114 small cell lung): 0.437 µM | TGI (DMS 114 small cell lung): 2.1 µM | TGI (KM20L2 colon): 11.8 µM | TGI (ACHN renal): 20.5 µM | TGI (DMS 273 small cell lung): 3.09 µM | TGI (HOP-18 NSCLC): 26.9 µM | TGI (SNB-78 CNS): 3.41 µM | TGI (XF 498 CNS): 6.06 µM | TGI (LXFL 529 NSCLC): 2.35 µM

O=C(/C=C/c1ccc(O)c(O)c1)OC1C[C@@](O)(C(=O)O)C[C@@H](O)[C@H]1OC(=O)/C=C/c1ccc(O)c(O)c1 (stereo not given in full)
TGI (DLD-1 colon): > 100 µM | TGI (DMS 114 small cell lung): > 100 µM | TGI (KM20L2 colon): > 100 µM | TGI (ACHN renal): > 100 µM | TGI (DMS 273 small cell lung): > 100 µM | TGI (HOP-18 NSCLC): > 100 µM | TGI (SNB-78 CNS): > 100 µM | TGI (M19-MEL melanoma): > 100 µM | TGI (XF 498 CNS): > 100 µM | TGI (LXFL 529 NSCLC): > 100 µM

Cc1nnc2sc(Cl)nn12
TGI (MDA-N): 48.9 µM | TGI (ACHN renal): 54.8 µM

CCN(CC)C(=S)SNc1ccc(S(N)(=O)=O)cc1
TGI (MDA-N): > 100 µM | TGI (ACHN renal): > 100 µM

Cc1n[n+](CC(=O)c2ccccc2)c2sc(N)nn12
TGI (MDA-N): > 100 µM | TGI (ACHN renal): > 100 µM

C/C(=C/c1ccccc1)CN(C(=O)/C=C\Sc1ccccc1)C(C)(C)C
TGI (MDA-N): > 100 µM | TGI (ACHN renal): > 100 µM

O=C(CSc1nnc(Cc2ccccc2)o1)Nc1cccc(Cl)c1
TGI (DLD-1 colon): > 100 µM | TGI (KM20L2 colon): > 100 µM | TGI (ACHN renal): > 100 µM | TGI (DMS 273 small cell lung): > 100 µM | TGI (HOP-18 NSCLC): > 100 µM | TGI (SNB-78 CNS): > 100 µM | TGI (M19-MEL melanoma): > 100 µM | TGI (LXFL 529 NSCLC): > 100 µM

O=C(Nc1ccc(Cl)cc1)NS(=O)(=O)c1coc2ccccc2c1=O
TGI (MDA-N): > 10 µM | TGI (ACHN renal): > 10 µM

CCCCC(C(=O)N/N=C/c1ccc([N+](=O)[O-])o1)C(=O)N/N=C/c1ccc([N+](=O)[O-])o1
TGI (MDA-N): 16.1 µM | TGI (ACHN renal): 3.69 µM

CC1C(=NO)C(C)C(c2ccccc2)N(N=O)C1c1ccccc1 (stereo not given)
TGI (MDA-N): 36.3 µM | TGI (ACHN renal): 45.7 µM

Cc1cc2nc3c(C#N)c(-c4ccccc4)/c(=C\Nc4ccc(Cl)cc4)c(=O)n3c2cc1C
TGI (MDA-N): > 100 µM | TGI (ACHN renal): > 100 µM

[O-]c1c[n+](CCCC[n+]2cc([O-])on2)no1
TGI (MDA-N): > 100 µM | TGI (ACHN renal): > 100 µM

O=c1c(-c2c(-c3ccccc3)oc3ccc(Cl)cc3c2=O)c(-c2ccccc2)oc2ccc(Cl)cc12
TGI (MDA-N): > 100 µM | TGI (ACHN renal): > 100 µM

CCCCOCn1c(=O)[nH]c(=O)c2ccccc21
TGI (MDA-N): > 100 µM | TGI (ACHN renal): > 100 µM

O=c1c(-c2ccccc2)c2oc(c1-c1ccccc1)CS(=O)(=O)CCC2
TGI (DLD-1 colon): 58.8 µM | TGI (DMS 114 small cell lung): > 100 µM | TGI (ACHN renal): > 100 µM | TGI (DMS 273 small cell lung): 58.3 µM | TGI (HOP-18 NSCLC): > 100 µM | TGI (M19-MEL melanoma): 30.7 µM | TGI (XF 498 CNS): 24.7 µM | TGI (LXFL 529 NSCLC): 33.7 µM

Cc1ccc(-c2cc(-c3ccc(Cl)cc3)nc(/N=C3\C(=O)N(CN4CCOCC4)c4ccccc43)n2)cc1
TGI (MDA-N): 37.6 µM | TGI (ACHN renal): 63.8 µM

Cc1ccccc1[P+](C)(c1ccccc1C)c1ccccc1C
TGI (ACHN renal): 29.3 µM

N#CC1(C#N)NC(c2cccnc2)C(C#N)(C#N)NC1c1cccnc1 (stereo not given)
TGI (MDA-N): > 100 µM

C=CCOc1ccc(/C(N=Nc2ccc(C)cc2)=N/NC(=O)c2ccccc2)cc1OC
TGI (MDA-N): 57.6 µM | TGI (ACHN renal): > 100 µM

CC(C)(Br)C(Br)CCC(=CCBr)CBr (mixture of isomers)
TGI (DLD-1 colon): 11.2 µM | TGI (MDA-N): 4.68 µM | TGI (ACHN renal): 21.6 µM | TGI (DMS 273 small cell lung): 3.51 µM | TGI (HOP-18 NSCLC): 31.9 µM | TGI (SNB-78 CNS): 17.1 µM | TGI (M19-MEL melanoma): 4.2 µM | TGI (LXFL 529 NSCLC): 11.6 µM

CC1=[N+]([O-])C(C)(C)N(N=O)C1(C)C
TGI (MDA-N): > 10 µM | TGI (ACHN renal): > 10 µM

CC1(C)C=Cc2c(cc3oc4ccc5c(c4c(=O)c3c2O)C=CC(C)(C)O5)O1
TGI (MDA-N): > 100 µM | TGI (ACHN renal): > 100 µM

Cc1ccc2c3c(cnc2n1)C(=O)OCCN3C
TGI (MDA-N): > 100 µM | TGI (ACHN renal): > 100 µM

COc1cc(C2SCC(=O)N2Cc2ccccc2)cc(OC)c1OC (stereo not given)
TGI (MDA-N): > 100 µM | TGI (ACHN renal): > 100 µM

CCOC(=O)CCC(NC(=O)OCc1ccccc1)C(=O)NC(CCC(=O)OCC)C(=O)NC(Cc1ccc([N+](=O)[O-])cc1)C(=O)NC(CCC(=O)OCC)C(=O)NC(CCC(=O)OCC)C(=O)OCC (stereo not given) (Cbz-E(OEt)E(OEt)[Phe(4-NO2)]E(OEt)E(OEt)-OEt; configuration not given here)
TGI (MDA-N): > 100 µM | TGI (ACHN renal): > 100 µM

CC1(C)C(C#N)=[N+]([O-])C(C)(C)N1O
TGI (MDA-N): > 100 µM | TGI (ACHN renal): > 100 µM

COC(=O)C(Cc1ccccc1)NC(=O)C(CCC(=O)OCc1ccccc1)NC(=O)OC(C)(C)C (stereo not given)
TGI (ACHN renal): > 100 µM

CCOC(=O)C1(C#N)C(c2ccccc2)CC(O)(c2ccc([N+](=O)[O-])cc2)C(C(=O)c2ccc([N+](=O)[O-])cc2)C1c1ccccc1 (stereo not given)
TGI (DLD-1 colon): > 100 µM | TGI (DMS 114 small cell lung): > 100 µM | TGI (KM20L2 colon): > 100 µM | TGI (ACHN renal): > 100 µM | TGI (DMS 273 small cell lung): > 100 µM | TGI (HOP-18 NSCLC): > 100 µM | TGI (SNB-78 CNS): > 100 µM | TGI (M19-MEL melanoma): > 100 µM | TGI (XF 498 CNS): > 100 µM | TGI (LXFL 529 NSCLC): > 100 µM

O=C(Cc1ccccc1)N[C@@H]1COC(=O)[C@@H]2CCCN2C(=O)[C@@H]2CCCN2C1=O (PhAc-[dS]-Pro-Pro; ester 1-C)
TGI (MDA-N): > 100 µM | TGI (ACHN renal): > 100 µM

c1ccc(CSc2ccccc2CN2CCN(Cc3ccccc3SCc3ccccc3)CCN(Cc3ccccc3SCc3ccccc3)CC2)cc1
TGI (MDA-N): 3.02 µM | TGI (ACHN renal): 10.7 µM
